Target: T1, uterine OT receptors (Rattus norvegicus, UniProt P70536)
T1 construct: from tissue; host or cells: uterus of DES-treated rats, crude membrane preparation
T1 sequence (P70536 1-388): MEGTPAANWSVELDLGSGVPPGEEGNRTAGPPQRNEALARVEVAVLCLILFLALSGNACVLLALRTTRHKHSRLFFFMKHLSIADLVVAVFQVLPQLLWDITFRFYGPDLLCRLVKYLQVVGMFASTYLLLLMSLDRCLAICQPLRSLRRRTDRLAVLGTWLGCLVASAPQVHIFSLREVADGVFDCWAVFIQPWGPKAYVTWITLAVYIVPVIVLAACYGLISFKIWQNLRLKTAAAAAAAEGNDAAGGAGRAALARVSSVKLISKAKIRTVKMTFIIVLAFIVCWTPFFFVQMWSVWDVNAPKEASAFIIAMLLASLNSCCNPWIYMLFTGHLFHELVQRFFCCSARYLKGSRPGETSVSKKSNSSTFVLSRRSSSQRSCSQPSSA
Assay: [3H]Oxytocin radioligand binding assay to uterine OT receptors (crude membrane preparation of uteri from DES-treated rats)
Conditions: competition at equilibrium, 60 min, 22° C., 1 nM [3H]OT, pH 7.4; Ki = IC50/1+c/Kd, Kd [3H]OT (uterus) 0.7 nM; three to six separate determinations
Description: The high affinity binding of [^3 H] […] Competition studies were conducted at equilibrium (60 minutes; 22° C.) using 1 nM[^3 H]OT in the following assay buffer: 50 mM Tris-HCl, 5 mM MgCl2, and 0.1% BSA, pH 7.4.

Ki: 7.7 nM
SMILES: Cc1ccccc1N1CCN(S(=O)(=O)C[C@]23CC[C@H](C[C@@H]2NC(=O)[C@@H](N)CCS(C)(=O)=O)C3(C)C)CC1 [Compound I]
